Measured values: patent US12539292B2, “BRM targeting compounds and associated methods of use” (Arvinas Operations, Inc., priority 2018, dated 2026)

Biological target: T1, BRM (Homo sapiens, UniProt P51531)
T1 construct: In-Cell Western Screen of BRM Degradation in SW1573 Cells; endogenous in cells; host or cells: SW1573
Experiment: In-cell Western screen of BRM degradation in SW1573 cells (Dmax and DC50)
Type: cell-based
Conditions: for Dmax: SW1573, % degraded, when tested at the top concentration of between 0.3 and 10 μM, read-out: BRM Dmax (%); for DC50: degradation of BRM, read-out: BRM DC50
In short: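 BRM levels were read by LI-COR in-cell Western after two-channel (800/680 nm) immunostaining of fixed, Triton-permeabilised SW1573 cells.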

T1 sequence (P51531 whole entry): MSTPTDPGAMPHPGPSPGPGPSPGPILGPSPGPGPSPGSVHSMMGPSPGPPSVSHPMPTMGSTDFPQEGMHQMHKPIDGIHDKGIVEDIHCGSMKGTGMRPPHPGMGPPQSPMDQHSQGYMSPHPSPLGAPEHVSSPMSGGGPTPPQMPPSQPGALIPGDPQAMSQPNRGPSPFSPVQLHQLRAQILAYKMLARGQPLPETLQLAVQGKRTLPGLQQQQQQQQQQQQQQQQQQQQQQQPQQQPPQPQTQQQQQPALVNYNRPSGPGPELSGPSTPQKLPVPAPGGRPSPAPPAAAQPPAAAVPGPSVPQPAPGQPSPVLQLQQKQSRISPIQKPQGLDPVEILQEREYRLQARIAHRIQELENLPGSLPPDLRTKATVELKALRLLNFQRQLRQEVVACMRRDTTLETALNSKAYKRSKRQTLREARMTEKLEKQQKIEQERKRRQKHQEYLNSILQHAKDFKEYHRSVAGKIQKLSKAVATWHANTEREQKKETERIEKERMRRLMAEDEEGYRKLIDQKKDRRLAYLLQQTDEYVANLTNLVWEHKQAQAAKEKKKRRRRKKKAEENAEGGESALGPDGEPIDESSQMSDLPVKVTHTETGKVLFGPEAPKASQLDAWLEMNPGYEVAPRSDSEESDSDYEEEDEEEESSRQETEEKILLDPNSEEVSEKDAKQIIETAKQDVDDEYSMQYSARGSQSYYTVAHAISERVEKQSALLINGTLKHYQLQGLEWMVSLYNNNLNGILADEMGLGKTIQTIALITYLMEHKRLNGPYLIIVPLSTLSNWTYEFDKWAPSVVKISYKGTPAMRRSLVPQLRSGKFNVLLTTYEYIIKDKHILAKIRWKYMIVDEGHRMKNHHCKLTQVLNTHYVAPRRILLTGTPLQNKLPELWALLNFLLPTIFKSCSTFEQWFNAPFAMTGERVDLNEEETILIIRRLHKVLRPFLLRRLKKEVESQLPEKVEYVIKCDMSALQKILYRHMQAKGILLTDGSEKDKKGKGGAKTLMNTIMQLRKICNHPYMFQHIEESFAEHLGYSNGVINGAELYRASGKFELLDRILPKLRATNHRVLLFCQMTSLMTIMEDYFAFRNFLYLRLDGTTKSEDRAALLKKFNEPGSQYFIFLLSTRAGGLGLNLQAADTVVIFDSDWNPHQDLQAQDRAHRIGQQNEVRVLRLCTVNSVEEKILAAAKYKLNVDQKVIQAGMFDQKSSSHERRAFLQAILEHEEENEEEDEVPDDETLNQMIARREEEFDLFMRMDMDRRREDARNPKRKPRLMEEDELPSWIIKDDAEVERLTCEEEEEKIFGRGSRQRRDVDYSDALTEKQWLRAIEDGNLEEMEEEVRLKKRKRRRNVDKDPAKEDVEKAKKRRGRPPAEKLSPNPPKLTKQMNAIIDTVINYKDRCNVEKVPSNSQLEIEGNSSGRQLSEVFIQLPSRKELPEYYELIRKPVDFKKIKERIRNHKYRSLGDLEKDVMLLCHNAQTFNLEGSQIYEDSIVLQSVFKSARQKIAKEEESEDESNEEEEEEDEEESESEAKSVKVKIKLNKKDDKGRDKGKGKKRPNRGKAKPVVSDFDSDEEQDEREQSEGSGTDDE

Row | Structure (SMILES) | Dmax | DC50
1 | Cc1ncsc1-c1ncc([C@H](C)NC(=O)[C@@H]2C[C@@H](O)CN2C(=O)[C@@H](c2cc(OCCN3CCC(O[C@H]4C[C@H](Oc5cc(N6C7CCC6CN(c6cc(-c8ccccc8O)nnc6N)C7)ccn5)C4)CC3)no2)C(C)C)cn1 [compound 430, (2S,4R)-1-((2R)-2-(3-(2-(4-((1r,3R)-3-((4-(3-(3-amino-6-(2-hydroxyphenyl)pyridazin-4-yl)-3,8-diazabicyclo[3.2.1]octan-8-yl)pyridin-2-yl)oxy)cyclobutoxy)piperidin-1-yl)ethoxy)isoxazol-5-yl)-3-methylbutanoyl)-4-hydroxy-N-((S)-1-(2-(4-methylthiazol-5-yl)pyrimidin-5-yl)ethyl)pyrrolidine-2-carboxamide] | > 75% | 2.5 to 10 nM
2 | Cc1cc([C@@H](C(=O)N2C[C@H](O)C[C@H]2C(=O)N[C@@H](C)c2ccc(-c3scnc3C)cc2)[C@@H](C)COCCCCOc2cc(N3C4CCC3CN(c3cc(-c5ccccc5O)nnc3N)C4)ccn2)on1 [compound 431, (2S,4R)-1-((2S,3R)-4-(4-((4-(3-(3-amino-6-(2-hydroxyphenyl)pyridazin-4-yl)-3,8-diazabicyclo[3.2.1]octan-8-yl)pyridin-2-yl)oxy)butoxy)-3-methyl-2-(3-methylisoxazol-5-yl)butanoyl)-4-hydroxy-N-((S)-1-(4-(4-methylthiazol-5-yl)phenyl)ethyl)pyrrolidine-2-carboxamide] | > 75% | < 2.5 nM
3 | Cc1cc([C@H](C(=O)N2C[C@H](O)C[C@H]2C(=O)N[C@@H](C)c2ccc(-c3scnc3C)cc2)[C@@H](C)COCCCCOc2cc(N3C4CCC3CN(c3cc(-c5ccccc5O)nnc3N)C4)ccn2)on1 [compound 432, (2S,4R)-1-((2R,3R)-4-(4-((4-(3-(3-amino-6-(2-hydroxyphenyl)pyridazin-4-yl)-3,8-diazabicyclo[3.2.1]octan-8-yl)pyridin-2-yl)oxy)butoxy)-3-methyl-2-(3-methylisoxazol-5-yl)butanoyl)-4-hydroxy-N-((S)-1-(4-(4-methylthiazol-5-yl)phenyl)ethyl)pyrrolidine-2-carboxamide] | > 75% | 10 to 30 nM
4 | Cc1ncsc1-c1ccc([C@H](C)NC(=O)[C@@H]2C[C@@H](O)CN2C(=O)[C@H](c2cc(N3CCC(CO[C@H]4C[C@H](Oc5cc(N6C7CCC6CN(c6cc(-c8ccccc8O)nnc6N)C7)ccn5)C4)CC3)no2)C(C)C)cc1 [compound 433, (2S,4R)-1-((2S)-2-(3-(4-(((1r,3S)-3-((4-(3-(3-amino-6-(2-hydroxyphenyl)pyridazin-4-yl)-3,8-diazabicyclo[3.2.1]octan-8-yl)pyridin-2-yl)oxy)cyclobutoxy)methyl)piperidin-1-yl)isoxazol-5-yl)-3-methylbutanoyl)-4-hydroxy-N-((S)-1-(4-(4-methylthiazol-5-yl)phenyl)ethyl)pyrrolidine-2-carboxamide] | > 75% | 2.5 to 10 nM
5 | Cc1ncsc1-c1ccc([C@H](C)NC(=O)[C@@H]2C[C@@H](O)CN2C(=O)[C@@H](c2cc(N3CCC(CO[C@H]4C[C@H](Oc5cc(N6C7CCC6CN(c6cc(-c8ccccc8O)nnc6N)C7)ccn5)C4)CC3)no2)C(C)C)cc1 [compound 434, (2S,4R)-1-((2R)-2-(3-(4-(((1r,3R)-3-((4-(3-(3-amino-6-(2-hydroxyphenyl)pyridazin-4-yl)-3,8-diazabicyclo[3.2.1]octan-8-yl)pyridin-2-yl)oxy)cyclobutoxy)methyl)piperidin-1-yl)isoxazol-5-yl)-3-methylbutanoyl)-4-hydroxy-N-((S)-1-(4-(4-methylthiazol-5-yl)phenyl)ethyl)pyrrolidine-2-carboxamide] | > 75% | < 2.5 nM
